In US20180078609A1, “METHODS AND COMPOSITIONS FOR TREATING ALZHEIMER'S DISEASE AND OTHER MEMORY-ASSOCIATED DISORDERS AND CONDITIONS” (Massachusetts Institute of Technology, priority 2016, published 2018):

Columns and labels:
early AD mice = assay: Contextual fear conditioning memory recall (freezing) after in vivo optical LTP; design: species or system mouse
Excerpt: Two distinct contexts were employed [Ryan, T. J., et al. (2015) Science 348, 1007-1013]. Context A was 29×25×22 cm chambers with grid floors, opaque triangular ceilings, red lighting, and scented with 1% acetic acid. Four mice were run simultaneously in four identical context A chambers. Context B consisted of four 30×25×33 cm chambers with perspex floors, transparent square ceilings, bright white lighting, and scented with 0.25% benzaldehyde. All mice were conditioned in context A (two 0.60 mA shocks of 2 s duration in 5 min), and tested (3 min) in contexts A and B 1 day later. […] Floors of chambers were cleaned with quatricide before and between runs. Mice were transported to and from the experimental room in their home cages using a wheeled cart. The cart and cages remained in an anteroom to the experimental rooms during all behavioral experiments. For engram labeling, mice were kept on regular food without DOX for 24 h before training. When training was complete, mice were switched back to food containing 40 mg kg^−1 DOX.
(§1) One day after CFC training and engram labelling (DG plus PP terminals) in control and early AD groups, mice were placed in an open field arena (52×26 cm) after patch cords were fitted to the fiber implants. […]

DG engram cells [1] = assay: Dendritic spine density analysis of DG engram cells after in vivo optical LTP; design: species or system mouse; conditions: early AD mice treated with anisomycin after LTP induction
Method: Engram cells were labelled using c-Fos-tTA-driven synthesis of ChR2-eYFP or eYFP alone. The eYFP signal was amplified using immunohistochemistry procedures, after which fluorescence z-stacks were taken by confocal microscopy (Zeiss LSM700) using a×40 objective. Maximum intensity projections were generated using ZEN Black software (Zeiss). Four mice per experimental group were analyzed for dendritic spines. For each mouse, 30-40 dendritic fragments of 10-μm length were quantified (n=120-160 fragments per group). To measure spine density of DG engram cells with a focus on entorhinal cortical inputs, distal dendritic fragments in the middle-to-outer molecular layer (ML) were selected. For CA3 and CA1 engram cells, apical and basal dendritic fragments were selected. To compute spine density, the number of spines counted on each fragment was normalized by the cylindrical approximation of the surface of the specific fragment. Experiments were conducted blind to experimental group. Researcher 1 imaged dendritic fragments and randomized images, while researcher 2 performed manual spine counting.
as §1

DG = assay: Kainic acid seizure-induced ChR2-eYFP labelling; type: in vivo, mouse; conditions: 1 day off DOX; 15 mg kg−1 i.p. kainic acid
Method: For seizure experiments [Liu, X., et al. (2012) Nature 484, 381-385], mice were taken off DOX for 1 day and injected intraperitoneally with 15 mg kg^−1 kainic acid (KA). Mice were returned to DOX food 6 h after KA treatment and perfused the next day for immunohistochemistry procedures.
To characterize the expression pattern of ChR2-eYFP, DTR-eYFP, eYFP alone and oChIEF-tdTomato in control and AD mice, the number of eYFP^+/tdTomato^+ neurons were counted from 4-5 coronal slices per mouse (n=3-5 mice per group). Coronal slices centered on coordinates covered by optic fiber implants were taken for DG quantification and sagittal slices centered on injection coordinates were taken for MEC and LEC. Fluorescence images were acquired using a Zeiss Axiolmager.Z1/ApoTome microscope (×20). […] The number of eYFP^+/tdTomato^+ cells per section was calculated by applying a threshold above background fluorescence. Data were analyzed using Microsoft Excel with the Statplus plug-in. A similar approach was applied for quantifying amyloid-3 plaques, c-Fos^+ neurons and adult newborn (DCX^+) neurons. Total engram cell reactivation was calculated as ((c-Fos^+ eYFP^+)/(total DAPI^+))×100. Chance overlap was calculated as ((c-Fos^+/total DAPI^+)×(eYFP^+/total DAPI^+))×100. Percentage of adult newborn neurons expressing neuronal markers was calculated as ((NeuN^+ DCX^+)/(total DCX^+))×100. […]

DG engram cells [2] = assay: DTR-mediated ablation of engram cells, DTR-eYFP cell counts; type: in vivo, mouse; conditions: DTR-expressing DG engram cells after DT administration
Method: Mice were dispatched using 750-1,000 mg kg^−1 avertin and perfused transcardially with PBS, followed by 4% paraformaldehyde (PFA). Brains were extracted and incubated in 4% PFA at room temperature overnight. Brains were transferred to PBS and 50 μm coronal slices were prepared using a vibratome. For immunostaining [Ryan, T. J., et al. (2015) Science 348, 1007-1013], each slice was placed in PBS+0.2% Triton X-100 (PBS-T), with 5% normal goat serum for 1 h and then incubated with primary antibody at 4° C. for 24 h. Slices then underwent three wash steps for 10 min each in PBS-T, followed by 1 h incubation with secondary antibody. […]
To characterize the expression pattern of ChR2-eYFP, DTR-eYFP, eYFP alone and oChIEF-tdTomato in control and AD mice, the number of eYFP^+/tdTomato^+ neurons were counted from 4-5 coronal slices per mouse (n=3-5 mice per group). Coronal slices centered on coordinates covered by optic fiber implants were taken for DG quantification and sagittal slices centered on injection coordinates were taken for MEC and LEC. Fluorescence images were acquired using a Zeiss Axiolmager.Z1/ApoTome microscope (×20). […] The number of eYFP^+/tdTomato^+ cells per section was calculated by applying a threshold above background fluorescence. Data were analyzed using Microsoft Excel with the Statplus plug-in. […]

DG mossy cells = assay: Calretinin (CR+) staining of mossy cell axons after engram cell ablation; type: in vivo, mouse; conditions: after DT administration
Method: Mice were dispatched using 750-1,000 mg kg^−1 avertin and perfused transcardially with PBS, followed by 4% paraformaldehyde (PFA). Brains were extracted and incubated in 4% PFA at room temperature overnight. Brains were transferred to PBS and 50 μm coronal slices were prepared using a vibratome. For immunostaining [Ryan, T. J., et al. (2015) Science 348, 1007-1013], each slice was placed in PBS+0.2% Triton X-100 (PBS-T), with 5% normal goat serum for 1 h and then incubated with primary antibody at 4° C. for 24 h. Slices then underwent three wash steps for 10 min each in PBS-T, followed by 1 h incubation with secondary antibody. After three more wash steps of 10 min each in PBS-T, slices were mounted on microscope slides. All analyses were performed blind to the experimental conditions. Antibodies used for staining were as follows: to stain for ChR2-eYFP, DTR-eYFP or eYFP alone, slices were incubated with primary chicken anti-GFP (1:1,000, Life Technologies) and visualized using anti-chicken Alexa-488 (1:200). For plaques, slices were stained using primary mouse anti-β-amyloid (1:1,000; Sigma-Aldrich) and secondary anti-mouse Alexa-488 (1:500). c-Fos was stained with rabbit anti-c-Fos (1:500, Calbiochem) and anti-rabbit Alexa-568 (1:300). Adult newborn neurons were stained with guinea pig anti-DCX (1:1,000; Millipore) and anti-guinea-pig Alexa-555 (1:500). […]

## COc1ccc(C[C@H]2NC[C@H](O)[C@H]2OC(C)=O)cc1 [anisomycin]
Early AD mice; AD+100 Hz+Aniso, 2 days after LTP induction followed by drug administration, 75 mg kg−1 i.p. twice
  Memory recall freezing vs saline-treated AD mice: less freezing
DG engram cells [1]
  Average dendritic spine density vs saline-treated AD mice: decreased

## C=C(C)[C@H]1CN[C@H](C(=O)O)[C@H]1CC(=O)O [kainic acid]
DG
  ChR2-eYFP labelling after seizures: efficient labelling throughout the DG

## diphtheria toxin
Early AD mice; AD rescue+DTR+DT, after optical LTP spine restoration
  Memory recall freezing vs saline-treated mice: less freezing
DG engram cells [2]
  Ablation of DG engram cells: efficiently ablated DG engram cells
DG mossy cells
  Effect on nearby DG mossy cells: intact
